Format in all cases: cell-based
In experiment [1] the test system is mouse macrophages (RAW264.7). Kind of experiment: Lipopolysaccharide-induced NO secretion in macrophages (Griess). The conditions noted are these: RAW264.7, LPS 1 μg/ml, 24 hours, a/b isomers given as first/second symbol, read-out: IC50 (μM), inhibition of lipopolysaccharide-induced NO secretion in macrophages. Summed up:
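Absorbance at 548 nm after Griess reagent addition to culture supernatant gave NO content; inhibition rate was derived relative to blank control. Cells were mouse RAW264.7 macrophages exposed to compounds and 1 μg/ml LPS for 24 hours.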
Background: Nitrite, measured by Griess reagent, commonly stands in for NO production.

Experiment [2] has as its system NF-κB. Kind of experiment: Immunological activity test: inhibition of NF-κB activity. The conditions noted are these: initial concentration of 30 μM; a/b isomers given as first/second symbol; read-out: IC50 (μM), inhibitory activity against NF-κB. The method, boiled down:
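Single-point testing at 30 μM preceded IC50 determination.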

For experiment [3], the system named is BHK-21 cells. Kind of experiment: Anti-fibrosis activity test: inhibition of BHK-21 cell proliferation (CCK-8). The conditions noted are these: Mesocricetus auratus, BHK-21, 48 h. Summed up:
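Each concentration was tested in triplicate on adhered BHK-21 cells for 48 h, with pirfenidone as reference. A 2 h CCK-8 incubation preceded absorbance reading at 450 nm, and IC50 was obtained from percent inhibition versus blank.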

Experiment [4] concerns cardiac fibroblast RAT-iCell-C002. Kind of experiment: Anti-fibrosis activity test: inhibition of proliferation of cardiac fibroblast RAT-iCell-C002 (CCK-8). The conditions noted are these: Cardiac fibroblast, 48 h. The method, boiled down:
(§1)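 A CCK-8 proliferation assay was run: cells at 2×10^4 cells/mL, adherent for 24 h, then incubated 48 h at 37° C with compound dilutions. A450 was recorded 2 h after CCK-8 addition and converted to percent inhibition versus blank for IC50 determination.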

Experiment [5] deals with human dermal fibroblasts CCC-ESF-1. Kind of experiment: Anti-fibrosis activity test: inhibition of proliferation of human dermal fibroblasts CCC-ESF-1 (CCK-8). The conditions noted are these: Fibroblast. Summed up:
as §1

For experiment [6], the system named is human fibrosarcoma cells HT-1080. The experiment in a line: Anti-fibrosis activity test: inhibition of proliferation of human fibrosarcoma cells HT-1080 (CCK-8). The conditions noted are these: Homo sapiens, HT-1080, 48 h. The method, boiled down: as §1
For experiment [7], the system named is human embryonic lung fibroblast IMR-90. The experiment in a line: Anti-fibrosis activity test: inhibition of proliferation of human embryonic lung fibroblast IMR-90 (CCK-8). The method, boiled down: as §1
In experiment [8] the test system is human hepatic stellate cells LX-2. The experiment in a line: Anti-fibrosis activity test: inhibition of proliferation of human hepatic stellate cells LX-2 (CCK-8). The conditions noted are these: Homo sapiens, 48 h. The method, boiled down:
as §1

Experiment [9] has as its system human lung fibroblasts HFL1. Kind of experiment: Anti-fibrosis activity test: inhibition of proliferation of human lung fibroblasts HFL1 (CCK-8). The conditions noted are these: Homo sapiens, HFL1, 48 h. The method, boiled down:
as §1

Where [10] appears, read: CCK-8, 48 hours after administration.
Setting [11] is: cardiac fibroblast RAT-iCell-C002, CCK-8, 48 hours.
Setting [12] is: human dermal fibroblasts CCC-ESF-1, CCK-8, 48 hours.
The mark [13] stands for this setting: human fibrosarcoma cells HT-1080, CCK-8, 48 hours.
The mark [14] stands for this setting: human embryonic lung fibroblast IMR-90, CCK-8, 48 hours.
Setting [15] is: human hepatic stellate cells LX-2, CCK-8, 48 hours.
Where [16] appears, read: human lung fibroblasts HFL1, CCK-8, 48 hours.
The mark [17] stands for this setting: Homo sapiens, CCC-ESF-1 cells, 48 h, CCK-8.
Where [18] appears, read: Homo sapiens, IMR-90 cells, 48 h, CCK-8.

Molecules are shown by their SMILES. Bounds are passed on as bounds.

Usually IC50 stands for the concentration that gives 50% inhibition. For `N#Cc1c(N2CCNCC2)ccc2c(=O)c3c(n(Cc4ccc(F)cc4)c12)-c1cccn1C3=O` [Compound 486a, 4-(4-Fluorobenzyl)-9,10-dioxo-6-(piperazin-1-yl)-4,10-dihydro-9H-pyrrolizino[1,2-b]quinoline-5-carbonitrile], the values for the 50% inhibitory concentration (IC50) in experiment [1] and in [2] were 0.1 to 1 µM and 10 to 50 µM, respectively.
On the same counts, the results for `N#Cc1c(N2CCNCC2)ccc2c(OCc3ccc(F)cc3)c3c(nc12)-c1cccn1C3=O` [Compound 486b, 9-((4-fluorobenzyl)oxy)-10-oxo-6-(piperazin-1-yl)-10H-pyrrolizino[1,2-b]quinoline-5-carbonitrile] are 1 to 10 µM and 1 to 10 µM.
In the case of `N#Cc1ccc2nc3c(c(OCc4ccc(-c5ccccc5)cc4)c2c1)C(=O)n1cccc1-3` [Compound 628b, 9-([1,1′-biphenyl]-4-ylmethoxy)-10-oxo-10H-pyrrolizino[1,2-b]quinoline-7-carbonitrile], the IC50 in [3] (setting [10]), in experiment [4] (setting [11]), in [5] (setting [12]), in experiment [6] (setting [13]), in experiment [7] (setting [14]) and in experiment [8] (setting [15]) was 0.05 to 5 mM each time. For the same compound, the IC50 in experiment [9] (setting [16]) lay within 0.05 to 5 mM; in [2], 1 to 10 µM.
As to `N#Cc1ccc2c(c1)c(=O)c1c(n2Cc2ccc(-c3ccccc3C#N)cc2)-c2cccn2C1=O` [Compound 629a, 4-((2′-Cyano-[1,1′-biphenyl]-4-yl)methyl)-9,10-dioxo-4,10-dihydro-9H-pyrrolizino[1,2-b]quinoline-7-carbonitrile], the IC50 in experiment [3] (setting [10]) is less than 0.05 mM; in experiment [4] (setting [11]) it was 0.05 to 5 mM; in experiment [5] (setting [12]) it was less than 0.05 mM; in [6] (setting [13]), 0.05 to 5 mM; in experiment [7] (setting [14]), 0.05 to 5 mM; in [8] (setting [15]) it was 0.05 to 5 mM. The values for the IC50 in [9] (setting [16]) and in experiment [2] were 0.05 to 5 mM and 1 to 10 µM, respectively.
As for `O=C1c2c(n(Cc3cc(C(F)(F)F)cc(C(F)(F)F)c3)c3cc(N4CCNCC4)ccc3c2=O)-c2cccn21` [Compound 631a, 4-(3,5-Bis(trifluoromethyl)benzyl)-6-(piperazin-1-yl)-9H-pyrrolizino[1,2-b]quinoline-9,10(4H)-dione], the IC50 in [3] (setting [10]), in [4] (setting [11]), in [5] (setting [12]), in experiment [6] (setting [13]), in [7] (setting [14]) and in [8] (setting [15]) was 0.05 to 5 mM throughout. The IC50 was 0.05 to 5 mM in experiment [9] (setting [16]) and 1 to 10 µM in experiment [2].
For `O=C1c2c(nc3ccccc3c2OCc2ccc(-c3ccccc3)cc2)-c2cccn21` [Compound 674b], the IC50 in [1] and in [2] was 1 to 10 µM throughout.
On to `Cc1ccc2c(=O)c3c([nH]c2c1)-c1cccn1C3=O` [Compound 714a, 6-Methyl-9H-pyrrolizino[1,2-b]quinoline-9,10(4H)-dione], for which the IC50 in experiment [3] (48 h, CCK-8) lay in the range of 0.05 to 5 mM; in experiment [4] (RAT-iCell-C002 cells, CCK-8) it was 0.05 to 5 mM; in experiment [5] (setting [17]), 0.05 to 5 mM; in [6] (HT-1080 cells, 48 h, CCK-8), 0.05 to 5 mM; in experiment [7] (setting [18]), 0.05 to 5 mM; in experiment [8] (LX-2, 48 h, LX-2 cells, CCK-8), 0.05 to 5 mM. Further, the IC50 in experiment [9] (HFL1 cells, 48 h, CCK-8) was in the range of 0.05 to 5 mM; in experiment [2] it was 1 to 10 µM.
For `Cc1ccc2c(O)c3c(nc2c1)-c1cccn1C3=O` [Compound 714b, 9-hydroxy-6-methyl-10H-pyrrolizino[1,2-b]quinolin-10-one], the concentration for half-maximal inhibition (IC50) in experiment [3] (48 h, CCK-8) was in the range of 0.05 to 5 mM; in experiment [4] (RAT-iCell-C002 cells, CCK-8), 0.05 to 5 mM; in [5] (setting [17]) it was 0.05 to 5 mM; in [6] (HT-1080 cells, 48 h, CCK-8), 0.05 to 5 mM; in experiment [7] (setting [18]), 0.05 to 5 mM; in experiment [8] (LX-2, 48 h, LX-2 cells, CCK-8), 0.05 to 5 mM. The IC50 in experiment [9] (HFL1 cells, 48 h, CCK-8) was 0.05 to 5 mM; in [2] it was 0.001 to 0.1 µM.

Source of the values: patent publication US11040028B2, “Penicinotam derivative, preparation method and use thereof” (OCEAN UNIVERSITY OF CHINA, priority 2017, dated 2021).
